# Assay results as given in ChEMBL document CHEMBL3769348, “A structureactivity relationship study of the positive allosteric modulator LY2033298 at the M4muscarinic acetylcholine receptor” (Medchemcomm, 2015).
# Activity calls are given as the source filed them. No cut-off for these calls is given here.
# Legend:
# Type in all cases: cell-based
# [1] = target: T1, Muscarinic acetylcholine receptor M4 (Homo sapiens) (UniProt P08173); experiment: Intrinsic activity at human M4 mAChR expressed in FIpIn-CHO cells assessed as ERK1/2 phosphorylation after 6 mins by Alphascreen assay in the presence of ACh
# T1 sequence (whole entry): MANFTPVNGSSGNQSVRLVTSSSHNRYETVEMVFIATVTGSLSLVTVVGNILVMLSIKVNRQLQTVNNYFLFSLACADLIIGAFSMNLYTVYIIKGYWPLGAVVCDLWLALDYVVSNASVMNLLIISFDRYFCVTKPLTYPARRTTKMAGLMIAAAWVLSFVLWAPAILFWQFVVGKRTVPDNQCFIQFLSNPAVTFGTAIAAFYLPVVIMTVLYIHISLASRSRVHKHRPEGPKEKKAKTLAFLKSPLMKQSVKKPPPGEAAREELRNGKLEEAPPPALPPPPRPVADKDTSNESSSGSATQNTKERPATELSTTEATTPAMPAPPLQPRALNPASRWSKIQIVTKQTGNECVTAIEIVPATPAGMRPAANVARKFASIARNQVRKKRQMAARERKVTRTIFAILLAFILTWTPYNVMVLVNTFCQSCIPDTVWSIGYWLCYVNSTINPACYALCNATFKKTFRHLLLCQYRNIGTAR
# [2] = target: T1, Muscarinic acetylcholine receptor M4 (Homo sapiens); experiment: Allosteric modulation of human M4 mAChR expressed in FIpIn-CHO cells assessed as ERK1/2 phosphorylation after 6 mins by Alphascreen assay in the presence of ACh
# [3] = target: T1, Muscarinic acetylcholine receptor M4 (Homo sapiens); experiment: Allosteric modulation of human M4 mAChR expressed in FIpIn-CHO cells assessed as ERK1/2 phosphorylation measured overall cooperativity after 6 mins by Alphascreen assay
# [4] = target: T1, Muscarinic acetylcholine receptor M4 (Homo sapiens); experiment: Displacement of [3H]NMS from human M4 mAChR expressed in FIpIn-CHO cells assessed as ligand affinity after 4 hrs by scintillation counting method in the presence of ACh
# [5] = target: T2, Muscarinic acetylcholine receptor M4 (Homo sapiens, UniProt P08173); experiment: Displacement of [3H]NMS from human M4 mAChR expressed in FIpIn-CHO cells after 4 hrs by scintillation counting method in the presence of ACh
# T2 sequence (P08173 whole entry): T1 sequence (whole entry)
Structure (SMILES),Intrinsic activity [1],log(IA) [1],Kb [2],pKb [2],Activity [3],log(activity) [3],Activity [4],log(activity) [4],Ki [5] [nM]
CCCCNC(=O)c1sc2nc(OC)c(Cl)c(C)c2c1N,2.8,0.44,500 nM,6.29,15.5,1.19,123,2.09,3200
COc1cc(C)c2c(N)c(C(=O)NC3CC3)sc2n1,4.6,0.66,2800 nM,5.55,28.8,1.46,,,
CCCCOc1nc2sc(C(=O)NC3CC3)c(N)c2c(C)c1Cl,0.3,-0.51,200 nM,6.81,2.5,0.4,22.4,1.35,2700
COc1nc2sc(C(=O)NC3CC3)c(NC(C)=O)c2c(C)c1Cl,inactive,inactive,inactive,inactive,inactive,inactive,,,
CCCC(=O)Nc1c(C(=O)NC2CC2)sc2nc(OC)c(Cl)c(C)c12,inactive,inactive,inactive,inactive,inactive,inactive,,,
CCOc1nc2sc(C(=O)NC3CC3)c(N)c2c(C)c1Cl,9.3,0.97,800 nM,6.1,61.7,1.79,95.5,1.98,200
CCNC(=O)c1sc2nc(OC)c(Cl)c(C)c2c1N,8.7,0.94,200 nM,6.73,69.2,1.84,562,2.75,4300
CCCCCCNC(=O)c1sc2nc(OC)c(Cl)c(C)c2c1N,0.4,-0.35,200 nM,6.7,1.3,0.13,,,
Cc1nc(C)c2c(N)c(C(=O)NC3CC3)sc2n1,3.1,0.49,12500 nM,4.9,14.1,1.15,,,
COc1nc2sc(C(=O)NC3CC3)c(N)c2c(C)c1I,2.3,0.37,200 nM,6.66,9.3,0.97,269,2.43,1700
CCCCCC(=O)Nc1c(C(=O)NC2CC2)sc2nc(OC)c(Cl)c(C)c12,inactive,inactive,inactive,inactive,inactive,inactive,,,
COc1nc2sc(C(=O)NC3CC3)c(N)c2c(C)c1Br,17.8,1.25,300 nM,6.52,81.3,1.91,347,2.54,520
COc1nc2sc(C(=O)NC3CC3)c(N)c2c(C)c1Cl,8.5,0.93,400 nM,6.41,240,2.38,1740,3.24,400
CCCCCCOc1nc2sc(C(=O)NC3CC3)c(N)c2c(C)c1Cl,0.2,-0.75,40 nM,7.42,2,0.3,,,
Cc1nc2sc(C(=O)NC3CC3)c(N)c2c(C)c1Cl,12.9,1.11,400 nM,6.45,77.6,1.89,,,
Cc1cc(C)c2c(N)c(C(=O)NC3CC3)sc2n1,5.9,0.77,,,52.5,1.72,,,
